These results are taken from BindingDB's records for doi:10.3109/14756369809035823 (Orstom, 1998).

“And” between values parts separate entries of the source, which are not always exact repeats. Equal values may be shown once.

Chain of Trypanothione reductase (P39040 whole entry): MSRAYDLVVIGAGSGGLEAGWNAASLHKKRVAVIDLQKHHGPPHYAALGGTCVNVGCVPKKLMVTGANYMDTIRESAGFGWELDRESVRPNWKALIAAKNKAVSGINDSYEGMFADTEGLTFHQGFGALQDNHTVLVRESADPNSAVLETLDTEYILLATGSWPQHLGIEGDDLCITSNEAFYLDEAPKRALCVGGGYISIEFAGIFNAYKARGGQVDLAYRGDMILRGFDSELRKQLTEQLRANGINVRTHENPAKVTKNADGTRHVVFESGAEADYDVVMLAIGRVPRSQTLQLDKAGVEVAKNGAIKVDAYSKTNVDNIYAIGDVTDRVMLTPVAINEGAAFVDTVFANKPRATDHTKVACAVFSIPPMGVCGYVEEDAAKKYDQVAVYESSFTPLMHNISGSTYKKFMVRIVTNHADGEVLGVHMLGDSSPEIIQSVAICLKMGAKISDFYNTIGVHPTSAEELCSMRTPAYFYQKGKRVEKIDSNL

The target of this assay is Trypanothione reductase (Crithidia fasciculata, UniProt P39040). Put plainly: Inhibition Assay. The note with it: pH 7.8; 25 °C. An excerpt:
Crithidia fasciculata trypanothione reductase (cfTR) was purifed from E.coli using the expression system. The activity of the cfTR was observed from the rate of oxidation of the co-substrate NADPH to NADP+ as measured by a decrease in absorbance at 340nm.
With `COc1cc2c3cc1Oc1cc(ccc1O)C[C@@H]1c4c(cc(OC)c(O)c4Oc4ccc(cc4)C[C@H]3N(C)CC2)CCN1C` [(-)-BEBEERINE], the IC50 was found to be 60 µM.

On to `COc1ccc2cc1Oc1ccc(cc1)C[C@H]1c3cc(c(OC)cc3CCN1C)Oc1c(O)c(OC)cc3c1[C@@H](C2)N(C)CC3` [Limacine (R,R)], for which the IC50 worked out at 90 µM.

Turning to `COc1cc2c(cc1O)[C@@H](Cc1ccc(Oc3cc(C[C@H]4NCCc5cc(OC)c(O)cc54)ccc3O)cc1)NCC2` [Lindoldhamine (R,R)], half-maximal inhibition (IC50) was put at 27 µM.

In turn, `COc1cc2c3cc1Oc1c(O)c(OC)cc4c1[C@H](Cc1ccc(cc1)Oc1cc(ccc1O)C[C@H]3NCC2)N(C)CC4` (racemic) [Daphnoline (R,S)] yielded an IC50 of 50 µM.

On to `COc1ccc2cc1Oc1ccc(cc1)C[C@H]1c3c(cc(OC)c(O)c3Oc3cc4c(cc3OC)CCN(C)[C@@H]4C2)CCN1C`, for which the IC50 stood at 55 µM.

`COc1ccc2cc1Oc1ccc(cc1)C[C@H]1c3c(cc4c(c3Oc3cc5c(cc3OC)CCN(C)[C@H]5C2)OCO4)CCN1C` [Cepharanthine] showed an IC50 of 15 µM.

For `COc1ccc2cc1Oc1ccc(cc1)C[C@H]1c3cc(c(OC)cc3CCN1C)Oc1c(OC)c(OC)cc3c1[C@@H](C2)N(C)CC3`, the IC50 is 122 µM and 235 µM.

The compound `COc1cc2c3c(c1OC)Oc1ccc(cc1)C[C@@H]1c4c(cc(OC)c(OC)c4Oc4ccc(cc4)C[C@H]3N(C)CC2)CCN1C` [Cycleanine (R,R)] returned an IC50 of 303 µM.

In the case of `COc1ccc2cc1Oc1ccc(cc1)C[C@H]1c3c(cc(O)c(OC)c3Oc3cc4c(cc3OC)CCN(C)[C@@H]4C2)CCN1C` [Gyrocarpine (S,R)], half-maximal inhibition (IC50) required 58 µM.

With `COc1cc2c3cc1Oc1c(O)c(OC)cc4c1[C@H](Cc1ccc(OC)c(c1)-c1cc(ccc1O)C[C@H]3N(C)CC2)N(C)CC4`, the IC50 is 60 µM.
